Reference: patent publication US7807350B2 (The University of Chicago, priority 2003, dated 2010)
Read-outs that look alike come from different tables or passages of the source.

Tests used:
[1] = Objective tumor response in the irinotecan 350 mg/m2 every 3 weeks trial; assay type: in vivo, human
Experimental: History, physical examination, complete blood count (CBC) with differential, serum chemistry profile (electrolytes, blood urea nitrogen, creatinine, glucose, albumin, alkaline phosphatase, GGTP, AST, ALT, total and conjugated bilirubin, uric acid, and lactate dehydrogenase), and coagulation profile (prothrombin time and partial thromboplastin time) were conducted prior to first treatment. Thereafter, history, physical examination, and toxicity assessment were conducted on day 1 of each cycle unless treatment-related toxicity required more frequent follow up. CBC and serum chemistry profile were obtained weekly throughout treatment, though CBCs were obtained 3 times per week with the appearance of grade 3 or 4 neutropenia or thrombocytopenia. Toxicity assessment was done according to the NCI common toxicity criteria, version 2.0 (website: ctep.cancer.gov). Objective tumor assessment by appropriate radiographic imaging was performed prior to starting therapy and after every 2 cycles.

[2] = cited from earlier work
[3] = Toxicity (neutropenia, diarrhea, toxic death) in cycle 1 of irinotecan 350 mg/m2 every 3 weeks in cancer patients, by UGT1A1 genotype; settings: for frequency of grade 4 neutropenia: cycle 1
[4] = Pharmacokinetic analysis of plasma irinotecan, SN-38 and SN-38G in patients, by TA indel genotype; assay type: in vivo, human; settings: for SN-38 AUC (mean) / SN-38G AUC (mean): after irinotecan
Experimental: Samples of 7 ml were collected into green top sodium heparinized Vacutainer® tubes prior to the infusion; 30, 60, and 90 minutes during the infusion; and 10, 20, 30, 45, and 60 minutes and 1.5, 2, 4, 6, 12, and 24 hours after the infusion. Samples were centrifuged (2500 rpm, 20 min, 4° C.) and the plasma was immediately separated, transferred as two aliquots into storage tubes, frozen at −80° C. until analysis.

[5] = relative to irinotecan; cited from earlier work
[6] = 6/6 TA indel genotype, 30 patients
[7] = 6/7 TA indel genotype, 25 patients
[8] = 7/7 TA indel genotype, 6 patients

## CCc1c2c(nc3ccc(OC(=O)N4CCC(N5CCCCC5)CC4)cc13)-c1cc3c(c(=O)n1C2)COC(=O)[C@]3(O)CC [irinotecan, 7-ethyl-10-[4-(1-piperidino)-1-piperidino]carbonyloxycamptothecin]
[1]; 60 patients assessable for response
  objective responses: 3
[1]; colorectal and head and neck cancer, 6/7 genotype
  patients achieving a partial response: Two
[1]; colorectal cancer, 6/6 genotype
  patients achieving a complete response: One
[2]; early single agent trials, dose limiting
  patients with grade 3-4 diarrhea: about one third
[2]; three-weekly regimen
  frequency of grade 3-4 diarrhea: 19%
[2]; three-weekly single agent regimen
  mortality rate: 1.6%
[2]; weekly schedule
  frequency of grade 3-4 diarrhea: 36%
[2]; weekly single agent regimen
  mortality rate: 5.3%
[3]; neutropenia-related sepsis, day 11 of cycle 1, 7/7 genotype
  toxic death: One toxic death
[3]; patients with 6/6 genotype (0/30)
  frequency of grade 4 neutropenia: 0%
[3]; patients with 7/7 genotype (3/6)
  frequency of grade 4 neutropenia: 50%
[3]; patients with pretreatment bilirubin less than 0.6 mg/dl
  cases of grade 4 neutropenia: No cases

## CCc1c2c(nc3ccc(O)cc13)-c1cc3c(c(=O)n1C2)COC(=O)[C@]3(O)CC [SN-38, 7-ethyl-10-hydroxycamptothecin]
[4]; [6]
  Glucuronidation Ratio (SN-38G AUC/SN-38 AUC): 6.52
  SN-38 AUC (mean): 335.9 ng·h/mL
[4]; [7]
  Glucuronidation Ratio (SN-38G AUC/SN-38 AUC): 5.55
  SN-38 AUC (mean): 458.4 ng·h/mL
[4]; [8]
  Glucuronidation Ratio (SN-38G AUC/SN-38 AUC): 3.59
  SN-38 AUC (mean): 542.0 ng·h/mL
[5]
  antitumor activity higher than irinotecan: 100-1,000 fold

## CCc1c2c(nc3ccc(O[C@@H]4O[C@H](C(=O)O)[C@@H](O)[C@H](O)[C@H]4O)cc13)-c1cc3c(c(=O)n1C2)COC(=O)[C@]3(O)CC [SN-38G, 10-O-glucuronyl-SN-38]
[4]; [6]
  SN-38G AUC (mean): 1954.2 ng·h/mL
[4]; [7]
  SN-38G AUC (mean): 1887.9 ng·h/mL
[4]; [8]
  SN-38G AUC (mean): 1819.1 ng·h/mL
